The text below walks through data of US9469804B2, “Foaming composition with wettability modifying and corrosion inhibitory properties for high temperature and ultra-high salinity” (INSTITUTO MEXICANO DEL PETROLEO, priority 2012, dated 2016).

Data set [1] is described as follows: Phase stability evaluation in brines with ultra-high salinity (turbidity). It is filed as physicochemical. The note with it: 0.2% by weight, room temperature, pass limit 30 NTU. As for the experimental part: A phase stability study was carried out for the supramolecular complexes object of the present invention, described in Examples 19, 20 and 21 and whose basic structural formula is indicated in (36).
All the products were assessed at concentration of 0.2% by weight, dissolved in different waters with high salinity and concentrations of divalent ions, through the measurement of turbidity in NTU (Nephelometric Turbidity Units). This value indicates how turbid or clear a solution/chemical product is and the higher the value, the more turbid the solution is.
The measurement is based on applying the nephelometric technique by using a photometer. The standard method is based on the comparison of the amount of light dispersed by the colloidal particles present in a sample of water with the intensity of the light emerging across the same sample.
It is worth mentioning that in order to pass this test, a value 30 NTU should not be exceeded.

Data set [2] can be described thus: Foaming test at atmospheric pressure (foam stability). It is filed as physicochemical. Particulars: brine 1, 70°C, 0.2% by weight, nitrogen.

With “coco-amido-propyl-hydroxysultaine [Coco amido-propyl hydroxysultaine]”, the TURBIDITY in data set [1] (BRINE 1 (salinity as NaCl 32803.9, hardness 6420 mg/L)) is listed as 1.09 NTU; in data set [1] (BRINE 2 (salinity as NaCl 152974.9, hardness 35200 mg/L)), 1.68 NTU; in data set [1] (BRINE 3 (salinity as NaCl 253859.1, hardness 87700 mg/L)), 3.9 NTU. Also, the “time in which the minimum foam stability of 30% is reached” value in data set [2] came out at 60 min.
